According to article PMC7784773 (Protein Science : A Publication of the Protein Society, 2020):
Several values for one entry are separate records, joined by “and”; a condition that tells them apart may be missing. Equal entries are not always repeated.

Assays:
[1] = biological target: T1, R67 dihydrofolate reductase (R67 DHFR; 4F, 5F, 6F and 7F R67 DHFR) (Escherichia coli, UniProt P00383); test: […] NMR titration, peak intensity, […] fit; type: binding; settings: Kd (μM) ^a / NADP^+
T1 sequence (P00383 1-78): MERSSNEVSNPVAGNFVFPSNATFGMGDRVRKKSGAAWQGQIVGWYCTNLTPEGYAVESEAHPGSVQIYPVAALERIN

[2] = biological target: T1, R67 dihydrofolate reductase (R67 DHFR; 4F, 5F, 6F and 7F R67 DHFR); test: […] NMR titration, chemical shift, […] fit; type: binding

Kd [1]: 360 µM and 320 µM and 380 µM | Kd [2]: 220 ± 20 µM
Structure (SMILES): NC(=O)c1ccc[n+]([C@@H]2O[C@H](COP(=O)(O)OP(=O)(O)OC[C@H]3O[C@@H](n4cnc5c(N)ncnc54)[C@H](OP(=O)(O)O)[C@@H]3O)[C@@H](O)[C@H]2O)c1 [NADP^+]
